In PubChem BioAssay (NCI):
Where “and” joins values, the source holds several entries; their conditions need not be identical. Equal values may be shown once.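 A five-concentration, 48-hour dose response in 96-well plates underlies each endpoint, interpolated linearly between surrounding concentrations. GI50 is the concentration that inhibits growth by half. TGI: total growth inhibition.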

Columns and labels:
Test in all cases: DTP human tumour cell line panel, 48 h
HCT-116 colon = system: HCT-116 colon
RXF 393 renal = system: RXF 393 renal
MALME-3M melanoma = system: MALME-3M melanoma
SW-620 colon = system: SW-620 colon
NCI-H460 lung = system: NCI-H460 lung
SNB-75 CNS = system: SNB-75 CNS
UACC-257 melanoma = system: UACC-257 melanoma
MOLT-4 leukemia = system: MOLT-4 leukemia
OVCAR-4 ovarian = system: OVCAR-4 ovarian
OVCAR-3 ovarian = system: OVCAR-3 ovarian

Structure (SMILES)	GI50 (HCT-116 colon)	TGI (HCT-116 colon)	GI50 (RXF 393 renal) [µM]	TGI (RXF 393 renal)	GI50 (MALME-3M melanoma)	TGI (MALME-3M melanoma)	GI50 (SW-620 colon) [µM]	TGI (SW-620 colon)	GI50 (NCI-H460 lung)	TGI (NCI-H460 lung)	GI50 (SNB-75 CNS)	TGI (SNB-75 CNS)	GI50 (UACC-257 melanoma) [µM]	TGI (UACC-257 melanoma)	GI50 (MOLT-4 leukemia) [µM]	TGI (MOLT-4 leukemia)	GI50 (OVCAR-4 ovarian)	TGI (OVCAR-4 ovarian)	GI50 (OVCAR-3 ovarian)	TGI (OVCAR-3 ovarian)
CN(c1ccccc1)c1c2ccccc2nc2[nH]c3ccccc3c12	2.89 µM	8.72 µM	2.11	38.7 µM	2.24 µM	5.72 µM	2.04	8.82 µM	1.16 µM	10.3 µM	3.04 µM	15.1 µM	6.54	21.4 µM	0.841	> 29.6 µM	4.42 µM	> 48.7 µM	2 µM	6.01 µM
O=C1NC(=O)C2C3C=CC(C12)C1C2C(=O)NC(=O)C2C31 (stereo not drawn)	> 39.9 µM and 308 µM	> 55.9 µM and 250 µM and > 1000 µM	> 1000	250 µM and > 1000 µM	> 785 µM	250 µM and > 1000 µM	–	> 67.4 µM and 203 µM and > 1000 µM	47 µM and 74.4 µM	203 µM and > 1000 µM	291 µM	249 µM and > 856 µM	> 1000	250 µM and > 1000 µM	160	201 µM and 850 µM	> 1000 µM	250 µM and > 1000 µM	> 909 µM	250 µM and > 1000 µM
CN(C)[C@@H]1C(=O)C(C(=O)NCc2nc3[nH]cnc(=S)c3[nH]2)=C(O)[C@@]2(O)C(=O)C3=C(O)c4c(O)cccc4[C@@](C)(O)[C@H]3C[C@@H]12	3.3 µM	> 100 µM	26.1	> 100 µM	> 100 µM	> 100 µM	17	> 100 µM	19.1 µM	> 100 µM	1.79 µM	> 100 µM	> 100	> 100 µM	5.04	> 100 µM	1.13 µM	> 100 µM	2.52 µM	> 100 µM
N#C[Se]CCN1C(=O)c2ccccc2C1=O	1.06 µM	3.23 µM	1.37	2.86 µM	1.82 µM	13.4 µM	2.38	5.66 µM	2.25 µM	11.4 µM	2.09 µM	5.56 µM	2.51	11 µM	2.01	23.9 µM	4.17 µM	23.9 µM	2.73 µM	9.39 µM
FC(F)(F)c1cccc(CNC2CCN(CCc3ccccc3)CC2)c1	22.1 µM	76.7 µM	12.9	39.5 µM	16 µM	31 µM	36.9	> 100 µM	19.1 µM	39.6 µM	11.7 µM	33.6 µM	17.2	33.4 µM	20.5	70.4 µM	23.1 µM	> 100 µM	32.6 µM	> 100 µM
COc1nc(N)nc2nc[nH]c12	747 µM and 670 µM	500 µM and 800 µM and > 1000 µM	–	489 µM and 800 µM and 914 µM	> 800 µM and 665 µM	356 µM and > 800 µM and > 1000 µM	> 1000	> 1000 µM	674 µM and 588 µM	500 µM and 800 µM and > 1000 µM	275 µM and 263 µM	342 µM and 679 µM and > 929 µM	> 1000	500 µM and > 800 µM and > 1000 µM	> 800	500 µM and > 800 µM and > 1000 µM	> 800 µM and 982 µM	500 µM and > 800 µM and > 1000 µM	744 µM and > 856 µM	500 µM and 800 µM and > 1000 µM
C=C(C)c1nc(Oc2ccccc2)nc(Oc2ccccc2)n1	–	10.5 µM	–	8.11 µM	–	27.6 µM	–	15.7 µM	–	22.8 µM	–	24.5 µM	–	23 µM	–	1.69 µM	–	31.7 µM	–	15.2 µM
Nc1ccccc1C(=O)/C=C/c1ccccc1O	–	> 100 µM	–	> 100 µM	–	> 100 µM	–	> 100 µM	–	> 100 µM	–	68.9 µM	–	53 µM	–	> 100 µM	–	> 100 µM	–	> 100 µM
CC(C)(C)C1CC[C@H]2c3c([nH]c4ccccc34)[C@H]3C(=O)N(c4ccc(F)cc4)C(=O)[C@H]3[C@H]2C1 (stereo partly drawn)	–	25 µM	–	43.9 µM	–	36.8 µM	–	35.8 µM	–	26.4 µM	–	23 µM	–	54.2 µM	–	27.8 µM	–	23.7 µM	–	31 µM
COc1ccc(Cn2c(Br)c3c(c2-c2cc(OC)c(OC)c(OC)c2)CCc2sc(N)nc2-3)cc1	1.4 µM	> 100 µM	0.448	14.8 µM	0.438 µM	28.5 µM	0.515	7.65 µM	1.89 µM	10.2 µM	0.688 µM	31.8 µM	11.8	51.3 µM	1.51	> 29.7 µM	2.5 µM	> 57.3 µM	0.861 µM	9.61 µM
COC1=CC(=O)C(O)=C(CC2(C)C(C)CCC3(C)C2CCCC3(C)C)C1=O (stereo not drawn)	–	21.3 µM	–	7.79 µM	–	13.4 µM	–	30.5 µM	–	10.6 µM	–	19 µM	–	21.9 µM	–	18.5 µM	–	> 100 µM	–	26.5 µM
O=C1NC(=NCc2cccs2)O/C1=C\c1ccc2ncccc2c1	4.92 µM	> 25 µM	4.63	13.9 µM	4.85 µM	15.3 µM	4.74	15.7 µM	6.62 µM	> 25 µM	1.72 µM	8.08 µM	3.74	12.4 µM	4.88	12.4 µM	4.5 µM	> 20.3 µM	4.46 µM	12.6 µM
CN(C)c1ccc(/C=N/N=C(\C#N)[S][Sn]([Cl])([c]2ccccc2)[c]2ccccc2)cc1	1.32 µM	2.63 µM	1.38	2.72 µM	1.74 µM	3.6 µM	0.853	2.45 µM	2.18 µM	4.75 µM	1.07 µM	2.36 µM	1.52	2.95 µM	0.876	5.32 µM	1.32 µM	2.63 µM	1.3 µM	2.59 µM
O=c1c(Oc2ccc(F)cc2F)cc2cnc(NC3CCOCC3)nc2n1C1CC1	> 25 µM	> 25 µM	> 17.1	> 25 µM	> 25 µM	> 25 µM	> 25	> 25 µM	> 25 µM	> 25 µM	> 25 µM	> 25 µM	> 25	> 25 µM	> 25	> 25 µM	> 25 µM	> 25 µM	> 25 µM	> 25 µM
